Where “and” joins values, the source holds several entries; their conditions need not be identical. Equal values may be shown once.
Biological target: SARS-CoV-2 Main Protease (SARS-CoV-2) (UniProt P0DTD1)

Structure (SMILES)	IC50
O=C(Cc1cc(Cl)cc(N2CCN(Cc3ccc(C(F)(F)F)cc3)CC2)c1)Nc1cncc2ccccc12	4280 nM
CC1(C(=O)Nc2cncc3cc(S(C)(=O)=O)ccc23)CNS(=O)(=O)c2ccc(Cl)cc21 (centres undefined)	172 nM
CC1CN(Cc2cccc(Cl)c2)CCN1C(=O)CCl (centres undefined)	7730 nM
O=C(Cc1cc(Cl)cc(NCc2ccc([N+](=O)[O-])cc2)c1)Nc1cncc2ccccc12	1820 nM
CC(C)NS(=O)(=O)N1Cc2ccc(Cl)cc2C(C(=O)Nc2cncc3ccccc23)C1 (centres undefined)	195 nM
O=C(Cc1cc(Cl)cc(NCc2ccc(-c3ccccc3)cc2)c1)Nc1cncc2ccccc12	1530 nM
O=C(NCCc1cccc(F)c1)C(c1cccnc1)N(C(=O)c1cocn1)C1CCN(c2ccccc2F)C1 (centres undefined)	> 99500 nM
COCCCNCC1(C(=O)Nc2cncc3ccccc23)CCOc2ccc(Cl)cc21 (centres undefined)	11400 nM
CN(Cc1ccccc1Br)c1cc(Cl)cc(CC(=O)Nc2cncc3ccccc23)c1	2110 nM
Cc1ccc(NC2=C(c3ccccc3)C(=O)N(Cc3cccnc3)C2=O)cc1Cl	> 99500 nM
CN(C1CC1)S(=O)(=O)N1Cc2ccc(Cl)cc2C(C(=O)Nc2cncc3ccccc23)C1 (centres undefined)	104 nM
O=C1CC(Oc2cc(Cl)cc(CC(=O)Nn3cnc4ccccc4c3=O)c2)N1 (centres undefined)	> 99500 nM
O=C(c1cc(=O)[nH]c2ccccc12)N1CCN(Cc2ccccc2)CC1	8760 nM
Cc1cc(Nc2cc(Cl)cc(CC(=O)Nc3cncc4ccccc34)c2)c(Cl)cc1F	2150 nM
C=CC(=O)Nc1ccc(O)c(C(=O)NC[C@@H](O)c2ccc3ccccc3c2)c1 (stereo in doubt)	> 99500 nM
CN(C)C(=O)CN1Cc2ccc(Cl)cc2C(C(=O)Nc2cncc3ccccc23)C1 (centres undefined)	896 nM
O=C(Nc1cncc2sc(Cl)cc12)C1CCOc2ccc(Cl)cc21 (centres undefined)	1030 nM
C=CC(=O)N(c1ccc2ncsc2c1)C(C(=O)Nc1cccc(CC)c1)c1cccnc1 (centres undefined)	63300 nM and 55000 nM
CN(C(=O)c1ccccc1N)c1cc(Cl)cc(CC(=O)Nc2cncc3ccccc23)c1	1940 nM
O=C(Nc1nncn1C1CC1)C1CCOc2ccc(Cl)cc21 (centres undefined)	513 nM and 696 nM

Structure (SMILES)	IC50
Cc1ccc(S(=O)(=O)NCC(=O)N2CCC(NS(N)(=O)=O)CC2)cc1	> 99500 nM
Cn1cncc1C(=O)N(c1ccc(C(C)(C)C)cc1)C(C(=O)NCCc1cccc(F)c1)c1cccnc1 (centres undefined)	> 99500 nM
O=C(Cc1cc(Cl)cc(Nc2c(F)cc(F)cc2[N+](=O)[O-])c1)Nc1cncc2ccccc12	2040 nM
COc1ccc(C2CC(c3cccs3)=NN2C(=O)CCl)cc1OC (centres undefined)	1750 nM and 2000 nM
CC1CC(CCN(C(=O)c2ccco2)C(C(=O)NCCc2cccc(F)c2)c2cccnc2)CC(C)(C)C1 (centres undefined)	> 99500 nM
Cn1nc(C(=O)NC(C)(C(=O)Nc2cncc3ccccc23)c2ccc(Cl)c(Cl)c2)cc1C#N (centres undefined)	7580 nM and 14100 nM
O=C(O)CCc1cc2c(cc1S(=O)(=O)N1CCN(c3ccccc3)CC1)OCO2	> 99500 nM
O=C(Cc1cc(Cl)cc(NCC(c2ccccc2)c2ccccc2)c1)Nc1cncc2ccccc12	5820 nM
O=C(NCCc1cccc(F)c1)C(c1cccnc1)N(C(=O)c1cnc[nH]1)C1CCN(c2ccccc2F)C1 (centres undefined)	> 99000 nM
O=C(NCCOc1ccccc1)c1cc(=O)[nH]c2ccccc12	> 99500 nM
Cc1nc(C2CC2)oc1C(=O)N(c1ccc(C(C)(C)C)cc1)C(C(=O)NCCc1cccc(F)c1)c1cccnc1 (centres undefined)	> 99500 nM
CN(C)S(=O)(=O)N1CCN(C(=O)C2Nc3ccccc3S(=O)(=O)N2)CC1 (centres undefined)	> 99500 nM
CC1=C[C@@H](c2c(O)cc(-c3cc4ccc(O)cc4o3)cc2O)[C@@H](C(=O)c2ccc(O)cc2O)[C@H](c2ccc(O)cc2O)C1 (stereo in doubt)	> 99500 nM
CCS(=O)(=O)c1ccc(CNS(=O)(=O)c2cnc(-c3ccccc3)s2)s1	> 99500 nM
O=C(Cc1cc(Cl)cc(OC2CC(=O)N2)c1)Nc1cncc2ccccc12 (centres undefined)	274 nM and 150 nM
O=C(CCl)N1CCN(Cc2cnc(Cc3ccccc3)s2)CC1	29800 nM
O=C(Cc1cccc(Cl)c1)Nc1ncn2ccccc12	> 99500 nM
Cc1ccc2c(c1)c(CCN)cn2-c1cc(Cl)cc(CC(=O)Nc2cncc3ccccc23)c1	1630 nM
CC1NC(=O)c2ccc(Cl)cc2C1C(=O)Nc1cncc2ccc(S(C)(=O)=O)cc12 (centres undefined)	1990 nM

Reference: the COVID Moonshot data (paper PMC7615835)
